According to US9221792B2, “N-(4-(azetidine-1-carbonyl) phenyl)-(hetero-) arylsulfonamide derivatives as pyruvate kinase M2 (PMK2) modulators” (AGIOS PHARMACEUTICALS, INC, priority 2010, dated 2015):

target: PKM2 (Homo sapiens, UniProt P14618); assay: PKM2 Assay (activation, LDH-coupled NADH absorbance at 340 nm); type: biochemical; conditions: activation of PKM2; PKM2 50 ng/well, ADP 0.7 mM, PEP 0.15 mM, room temperature (25° C.); read-out: AC50
Protocol: • PKM2 stock enzyme solution was diluted in Reaction Buffer • 2 μL of compound was added into each well first, and then 180 μL of the Reaction Mix was added. • Reaction mixture with compound (without ADP) were incubated for 30 minutes at 4° C. • Plates were re-equilibrated to room temperature prior to adding 20 μL ADP to initiate the reaction. • Reaction progress was measured as changes in absorbance at 340 nm wavelength at room temperature (25° C.) Reaction Mix: PKM2 (50 ng/well), ADP (0.7 mM), PEP (0.15 mM), NADH (180 μM), LDH (2 units) in Reaction Buffer Reaction Buffer: 100 mM KCl, 50 mM Tris pH 7.5, 5 mM MgCl2, 1 mM DTT, 0.03% BSA.
Certain compounds of Formula I were tested in the above-described assay. A compound described herein may be tested for its ability to activate PKM2. The activation activity of these compounds is represented as an AC50 in Table 2 and throughout the application. […] “B” refers to an activator of PKM2 with an EC50 between 100 nM and 1 μM. “C” refers to an activator of PKM2 with an EC50 between 1 μM and 10 μM. “D” refers to an activator of PKM2 with an EC50 greater than 10 μM. “NA” refers to data that is not available.

PKM2, sequence (P14618 whole entry): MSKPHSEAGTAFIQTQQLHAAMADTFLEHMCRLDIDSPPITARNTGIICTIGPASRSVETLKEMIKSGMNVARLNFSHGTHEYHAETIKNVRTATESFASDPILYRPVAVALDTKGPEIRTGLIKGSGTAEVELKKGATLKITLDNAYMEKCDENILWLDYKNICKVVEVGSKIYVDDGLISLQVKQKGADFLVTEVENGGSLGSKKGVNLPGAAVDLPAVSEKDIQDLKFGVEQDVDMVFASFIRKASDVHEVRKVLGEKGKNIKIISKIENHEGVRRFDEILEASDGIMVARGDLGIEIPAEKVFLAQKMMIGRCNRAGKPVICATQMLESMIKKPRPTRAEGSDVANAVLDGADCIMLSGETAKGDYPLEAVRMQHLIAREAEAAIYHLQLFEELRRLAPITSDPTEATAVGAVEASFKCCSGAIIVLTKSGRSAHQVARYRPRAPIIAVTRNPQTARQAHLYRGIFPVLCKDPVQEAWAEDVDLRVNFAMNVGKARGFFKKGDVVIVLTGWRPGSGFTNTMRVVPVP

| Structure (SMILES) | AC50 |
| --- | --- |
| Cc1cc(C(=O)N2CC(Nc3ccccn3)C2)ccc1NS(=O)(=O)c1cccc2cccnc12 [Compound 151] | < 0.1 µM |
| Cc1cc(C(=O)N2CC(OC(=O)Nc3ccccn3)C2)ccc1NS(=O)(=O)c1cccc2cccnc12 [Compound 155, 1-(3-Methyl-4-(quinoline-8-sulfonamido)benzoyl)azetidin-3-yl pyridin-2-ylcarbamate] | 0.1 to 1 µM |
| COc1cc(NS(=O)(=O)c2cccc3cccnc23)ccc1C(=O)N1CC(OC(=O)Nc2ccccn2)C1 [Compound 157, 1-(2-Methoxy-4-(quinoline-8-sulfonamido)benzoyl)azetidin-3-yl pyridin-2-ylcarbamate] | 0.1 to 1 µM |
| O=C(Nc1ccccn1)NC1CN(C(=O)c2ccc(NS(=O)(=O)c3cccc4cccnc34)cc2)C1 [Compound 160, N-(4-(3-(3-(Pyridin-2-yl)ureido)azetidine-1-carbonyl)phenyl)quinoline-8-sulfonamide] | 0.1 to 1 µM |
| O=C(Nc1ccccn1)OC1CN(C(=O)c2ccc(NS(=O)(=O)c3cccc4cccnc34)cc2)C1 [Compound 161, 1-(4-(Quinoline-8-sulfonamido)benzoyl)azetidin-3-ylpyridin-2-ylcarbamate] | 1 to 10 µM |
| CC(C)NC(=O)NC1CN(C(=O)c2ccc(NS(=O)(=O)c3cccc4cccnc34)cc2)C1 [Compound 163] | 1 to 10 µM |
| Cc1cc(C(=O)N2CC(NC(=O)NC(C)C)C2)ccc1NS(=O)(=O)c1cccc2cccnc12 [Compound 164] | 0.1 to 1 µM |
| O=C(c1ccc(NS(=O)(=O)c2cccc3cccnc23)cc1)N1CC(=Cc2ccccc2)C1 [Compound 165] | 0.1 to 1 µM |

Further lines, results first:

| AC50 | Structure (SMILES) |
| --- | --- |
| < 0.1 µM | COc1ccccc1OC1CN(C(=O)c2ccc(NS(=O)(=O)c3cccc4cccnc34)cc2OC)C1 [Compound 150] |
| 0.1 to 1 µM | COc1ccncc1NC1CN(C(=O)c2ccc(NS(=O)(=O)c3cccc4cccnc34)c(C)c2)C1 [Compound 153] |
| 0.1 to 1 µM | COc1ccccc1OC1CN(C(=O)c2ccc(NS(=O)(=O)c3cccc4cccnc34)c(F)c2)C1 [Compound 154] |
| 0.1 to 1 µM | COc1cc(C(=O)N2CC(OC(=O)Nc3ccccn3)C2)ccc1NS(=O)(=O)c1cccc2cccnc12 [Compound 156, 1-(3-Methoxy-4-(quinoline-8-sulfonamido)benzoyl)azetidin-3-yl pyridin-2-ylcarbamate] |
| < 0.1 µM | COc1cc(C(=O)N2CC(Oc3ccccc3OC)C2)ccc1NS(=O)(=O)c1cccc2cccnc12 [Compound 158] |
| < 0.1 µM | COc1ccccc1OC1CN(C(=O)c2ccc(NS(=O)(=O)c3cccc4cccnc34)c(C)c2)C1 [Compound 159] |
| > 10 µM | O=C(Nc1ccccn1)OC1CN(C(=O)c2ccc(NS(=O)(=O)c3cccc4cccnc34)c(F)c2)C1 [Compound 162, 1-(3-Fluoro-4-(quinoline-8-sulfonamido)benzoyl)azetidin-3-yl pyridin-2-ylcarbamate] |
